Results: article PMC8041284, “Tunable Methacrylamides for Covalent Ligand Directed Release Chemistry” (Journal of the American Chemical Society, 2021)

The compounds below were run against BTK (Homo sapiens, UniProt Q06187) (assay: biochemical). Conditions: read-out: BTK inhibition (%).
Chain of BTK (Q06187 402-655 limits assumed): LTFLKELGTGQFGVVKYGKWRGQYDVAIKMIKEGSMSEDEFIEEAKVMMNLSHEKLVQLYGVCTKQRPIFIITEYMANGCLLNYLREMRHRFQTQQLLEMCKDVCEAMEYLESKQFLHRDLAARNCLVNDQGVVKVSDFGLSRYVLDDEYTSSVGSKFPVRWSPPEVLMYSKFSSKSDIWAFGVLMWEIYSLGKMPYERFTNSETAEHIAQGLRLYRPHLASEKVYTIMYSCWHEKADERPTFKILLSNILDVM

SMILES | inhibition at 10 µM [%]
C[C@](O)(COc1ccc(C#N)cc1)C(=O)Nc1ccc(C#N)c(C(F)(F)F)c1 [PCM-0095045] | -0.8

Same assay, conditions: read-out: BTK inhibition (%), 0.75 uM BTK, […] probe 3l, 15 min preincubation

SMILES | inhibition at 10 µM [%]
Cn1cc(C2=C(c3cn(C4CCN(Cc5ccccn5)CC4)c4ccccc34)C(=O)NC2=O)c2ccccc21 [PCM-0094982] | 10.3
O=C(Nc1cccc(Cl)c1)Nc1ncc(CCNc2ncnc3ccsc23)s1 [PCM-0094983] | 73.1
Cc1c(NC(=O)OC[C@@H]2COCCN2)cn2ncnc(Nc3ccc4c(cnn4Cc4cccc(F)c4)c3)c12 [PCM-0094984] | 32.4
Cc1ccc(S(=O)(=O)OCC(=O)Nc2ccc(C(=O)O)c(O)c2)cc1 [PCM-0094985] | 29.6
CCCCCOC(=O)Nc1nc(=O)n([C@@H]2O[C@H](C)[C@@H](O)[C@H]2O)cc1F [PCM-0094987] | -11.7
O=C(c1cc(Cc2n[nH]c(=O)c3ccccc23)ccc1F)N1CCN(C(=O)C2CC2)CC1 [PCM-0094988] | 9.7
O=C(O)Cn1nnc(-c2cc(N3CCC(Oc4cc(F)ccc4Br)CC3)no2)n1 [PCM-0094989] | 4.1
COc1ccc(C2=N[C@@H](c3ccc(Cl)cc3)[C@@H](c3ccc(Cl)cc3)N2C(=O)N2CCNC(=O)C2)c(OC(C)C)c1 [PCM-0094990] | 14.5
CC(C)c1cc(-c2n[nH]c(=O)n2-c2ccc3c(ccn3C)c2)c(O)cc1O [PCM-0094991] | 12.4
Cc1ccc(NC(=O)c2ccc(CN3CCN(C)CC3)cc2)cc1Nc1nc(-c2cccnc2)cs1 [PCM-0094992] | -47.6
CS(=O)(=O)N1CCN(Cc2cc3nc(-c4cccc5[nH]ncc45)nc(N4CCOCC4)c3s2)CC1 [PCM-0094994] | -15.9
O=[N+]([O-])c1cn2c(n1)OC[C@@H](OCc1ccc(OC(F)(F)F)cc1)C2 [PCM-0094995] | 3.1
COc1cc2nccc(Oc3ccc(NC(=O)Nc4ccc(F)cc4F)c(F)c3)c2cc1OC [PCM-0094996] | 4.8
S=C(NCc1ccc2c(c1)OCO2)N1CCN(c2ncnc3c2oc2ccccc23)CC1 [PCM-0094997] | 28.3
C/C(=C\c1csc(C)n1)[C@@H]1C[C@@H]2O[C@]2(C)CCC[C@H](C)[C@H](O)[C@@H](C)C(=O)C(C)(C)[C@@H](O)CC(=O)O1 [PCM-0094998] | -9.3
Cn1c(N2CCCCS2(=O)=O)nc(C(=O)NCc2ccc(F)cc2)c(O)c1=O [PCM-0094999] | -20.2
CN(C)CCN1C(=O)c2cccc3cc(N)cc(c23)C1=O [PCM-0095001] | 0.8
Nc1nc(Nc2ccc(S(N)(=O)=O)cc2)nn1C(=O)c1c(F)cccc1F [PCM-0095002] | 84.1
CNC(=O)c1ccc(N2C(=S)N(c3ccc(C#N)c(C(F)(F)F)c3)C(=O)C2(C)C)cc1F [PCM-0095003] | -10.3
C[C@]12CCC3=C4CCC(=O)C=C4CC[C@H]3[C@@H]1CC[C@@]2(O)CC#N [PCM-0095005] | -11.7
CCCCCCCCCC(=O)N[C@@H](Cc1c[nH]c2ccccc12)C(=O)N[C@H](CC(N)=O)C(=O)N[C@@H](CC(=O)O)C(=O)N[C@@H]1C(=O)NCC(=O)N[C@@H](CCCN)C(=O)N[C@@H](CC(=O)O)C(=O)N[C@H](C)C(=O)N[C@@H](CC(=O)O)C(=O)NCC(=O)N[C@H](CO)C(=O)N[C@@H]([C@H](C)CC(=O)O)C(=O)N[C@@H](CC(=O)c2ccccc2N)C(=O)O[C@@H]1C [PCM-0095008] | -1.6
NC(=O)Cc1cccc(C(=O)c2ccccc2)c1N [PCM-0095009] | 11.7
N#CC(=C(N)Sc1ccc(N)cc1)c1ccccc1C(F)(F)F [PCM-0095011] | -28.3
CC(C)c1cc(C(=O)N2Cc3ccc(CN4CCN(C)CC4)cc3C2)c(O)cc1O [PCM-0095012] | -6.2
NC(=O)c1ccc(-c2nc(-c3ccc4c(c3)OCO4)c(-c3ccccn3)[nH]2)cc1 [PCM-0095013] | 12.4

SMILES | inhibition at 10 µM [%]
COc1cc2nccc(Oc3ccc(NC(=O)NC4CC4)c(Cl)c3)c2cc1C(N)=O [PCM-0095014] | 36.6
COc1ccc(S(=O)(=O)Nc2cccnc2Nc2ccc(O)cc2)cc1 [PCM-0095016] | -14.5
CCNC(=O)c1noc(-c2cc(C(C)C)c(O)cc2O)c1-c1ccc(CN2CCOCC2)cc1 [PCM-0095017] | -0.7
Cc1[nH]c(/C=C2\C(=O)Nc3ccc(S(=O)(=O)Cc4c(Cl)cccc4Cl)cc32)c(C)c1C(=O)N1CCC[C@@H]1CN1CCCC1 [PCM-0095018] | 35.2
CCOC(=O)NC/C=C/c1ccc2ncnc(Nc3ccc(Oc4ccc(C)nc4)c(C)c3)c2c1 [PCM-0095019] | -15.9
FC(F)c1nc2ccccc2n1-c1nc(N2CCOCC2)nc(N2CCOCC2)n1 [PCM-0095021] | 16.6
Cc1cc(C(C)Nc2ccccc2)c2nc(N3CCOCC3)cc(=O)n2c1 (centres unmarked) [PCM-0095022] | 10.3
C=CC(=O)Nc1cccc(Oc2nc(Nc3ccc(N4CCN(C)CC4)cc3)ncc2Cl)c1 [PCM-0095023] | 91.7
C[S+]([O-])c1ccc(-c2nc(-c3ccc(F)cc3)c(-c3ccncc3)[nH]2)cc1 (centres unmarked) [PCM-0095024] | 18.6
Cc1nc(N)sc1-c1ccnc(Nc2ccc(N3CCOCC3)cc2)n1 [PCM-0095025] | 57.2
c1ccc2c(CCNc3ccc(Nc4ccncc4)cc3)c[nH]c2c1 [PCM-0095026] | 26.9
CC(=O)Oc1cc2c(s1)CCN(C(C(=O)C1CC1)c1ccccc1F)C2 (centres unmarked) [PCM-0095029] | -2.3
N#CC[C@H](C1CCCC1)n1cc(-c2ncnc3[nH]ccc23)cn1 [PCM-0095031] | 28.3
C[C@@H](NCCCc1cccc(C(F)(F)F)c1)c1cccc2ccccc12 [PCM-0095032] | 24.1
C[C@@H](O)[C@H]1C(=O)N2C(C(=O)O)=C(S[C@@H]3CN[C@H](C(=O)N(C)C)C3)[C@H](C)[C@H]12 [PCM-0095036] | -14.8
CCN(CC)CCCCNc1ncc2cc(-c3cc(OC)cc(OC)c3)c(NC(=O)NC(C)(C)C)nc2n1 [PCM-0095037] | -9
COC(=O)Nc1ccc(-c2nc(N3CCOCC3)c3cnn(C4CCN(C(=O)OC)CC4)c3n2)cc1 [PCM-0095038] | 18.6
CCCS(=O)(=O)Nc1ccc(F)c(C(=O)c2c[nH]c3ncc(-c4ccc(Cl)cc4)cc23)c1F [PCM-0095039] | 24.8
CCOc1cc(N)c(Cl)cc1C(=O)NCC1CN(Cc2ccc(F)cc2)CCO1 (centres unmarked) [PCM-0095041] | -14
NC1(c2ccc(-c3nc4ccn5c(=O)[nH]nc5c4cc3-c3ccccc3)cc2)CCC1 [PCM-0095042] | -2.8
C=CC(=O)Nc1cccc(Oc2nc(Nc3ccc(N4CCN(C)CC4)cc3OC)ncc2Cl)c1 [PCM-0095043] | 89
Cc1[nH]c(/C=C2\C(=O)Nc3ccc(S(=O)(=O)N(C)c4cccc(Cl)c4)cc32)c(C)c1C(=O)N1CCN(C)CC1 [PCM-0095046] | 6.9
COc1c(C)cnc(Cn2cnc3c(Cl)nc(N)nc32)c1C [PCM-0095047] | -10.3
CS(=O)(=O)c1ccc(C(=O)Nc2ccc(Cl)c(-c3ccccn3)c2)c(Cl)c1 [PCM-0095048] | 6.2
Cc1cc2c(F)c(Oc3ncnn4cc(OC[C@@H](C)O)c(C)c34)ccc2[nH]1 [PCM-0095049] | 9

SMILES | inhibition at 10 µM [%]
CNC(=O)c1cc(Oc2ccc(NC(=O)Nc3ccc(Cl)c(C(F)(F)F)c3)c(F)c2)ccn1 [PCM-0095050] | 13.1
O=C(/C=C/c1cccc(S(=O)(=O)Nc2ccccc2)c1)NO [PCM-0095051] | 9
C=CC(=O)Nc1cccc(Sc2nc(Nc3ccc(N4CCN(C)CC4)cc3)ncc2Cl)c1 [PCM-0095052] | 95.9
NC(=O)c1ccc(I)c([N+](=O)[O-])c1 [PCM-0095053] | -1.4
O=c1[nH]c(-c2ccc(C(F)(F)F)cc2)nc2c1CSCC2 [PCM-0095054] | -25.5
Nc1ncnc2c1c(-c1cccc(OCc3ccccc3)c1)cn2C1CC(CN2CCCC2)C1 (centres unmarked) [PCM-0095055] | 13.2
N=C(N)c1ccc2cc(OC(=O)c3ccc(N=C(N)N)cc3)ccc2c1 [PCM-0095060] | -1.6
O=C(NCCCNc1nc(Nc2cccc(NC(=O)N3CCCC3)c2)ncc1I)c1cccs1 [PCM-0095061] | 60
O=C(Nc1cccc(Nc2ncc(Br)c(NCCc3cnc[nH]3)n2)c1)N1CCCC1 [PCM-0095062] | 85.5
CCOc1cc2ncc(C#N)c(Nc3ccc(F)c(Cl)c3)c2cc1NC(=O)/C=C/CN(C)C [PCM-0095063] | 96.6
CN1C[C@@H]2c3ccccc3Oc3ccc(Cl)cc3[C@H]2C1 [PCM-0095064] | 9.3
O=c1cc(-c2cccc3c2Sc2ccccc2S3)oc(N2CCOCC2)c1 [PCM-0095067] | -12.4
C/C(=C\C(=O)Nc1ccccc1C(=O)O)c1ccc2ccccc2c1 [PCM-0095068] | -11
CCc1cc(Nc2nccc(-c3c(-c4ccc(OC)c(C(=O)Nc5c(F)cccc5F)c4)nc4ccccn34)n2)c(OC)cc1N1CCC(N2CCN(S(C)(=O)=O)CC2)CC1 [PCM-0095069] | 44.8
OCCn1cc(-c2cnc3nnn(Cc4ccc5ncccc5c4)c3n2)cn1 [PCM-0095071] | 0
O=C(/C=C/c1ccc(CN(CCO)CCc2c[nH]c3ccccc23)cc1)NO [PCM-0095072] | -9.3
Cn1cc(CNCC2CCN(c3ncc(C(=O)NO)cn3)CC2)c2ccccc21 [PCM-0095073] | -11.7
CC1COC2(CCN(c3nc(=O)c4cc(C(F)(F)F)cc([N+](=O)[O-])c4s3)CC2)O1 (centres unmarked) [PCM-0095074] | 4.7
CNCc1ccc(-c2[nH]c3cc(F)cc4c3c2CCNC4=O)cc1 [PCM-0095075] | 18.6
Cc1nc2ccc(CN(C)c3ccc(C(=O)N[C@@H](CCC(=O)O)C(=O)O)s3)cc2c(=O)[nH]1 [PCM-0095076] | 1.6
O=C(O)c1ccc(Nc2ncc3c(n2)-c2ccc(Cl)cc2C(c2c(F)cccc2F)=NC3)cc1 [PCM-0095077] | 79.3
C#Cc1cccc(Nc2ncnc3cc(OC)c(OCCCCCCC(=O)NO)cc23)c1 [PCM-0095078] | 87.6
CNC(=O)c1ccc2cc([C@@]3(O)CCn4cncc43)ccc2c1 [PCM-0095080] | 3.1
